According to patent publication US20260109707A1, “HETEROBIFUNCTIONAL COMPOUNDS AND METHODS OF TREATING DISEASE” (Halda Therapeutics OpCo. Inc., priority 2022, published 2026):
Like-named read-outs stand apart in the source and are kept apart here.

Columns and labels:
[1] = test system: T-Rex 293 cell line SC3 cells having increased expression of androgen receptor protein due to exposure to doxycycline; assay: Cellular growth inhibition assay, T-Rex 293 SC3 cells with doxycycline (CellTiter-Glo, 72 hours); type: cell-based; conditions: T-Rex 293 SC3 cells with increased androgen receptor expression due to doxycycline (10 ng/mL)
Outline: (§1)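 Doxycycline (10 ng/mL) was either included or omitted to toggle wild-type androgen receptor expression in SC3 cells, a T-Rex 293 clone, grown in stripped-serum, phenol red-free medium. After 72 hours with compound, viable cells were quantified by CellTiter-Glo 2.0.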

[2] = test system: T47D cells; assay: Cellular growth inhibition assay for T47D cells (CellTiter-Glo, 72 hours); type: cell-based, human; conditions: 72 hours treatment
Outline: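 Growth inhibition as GI50, fitted with four parameters to CellTiter-Glo luminescence after 72 h of compound exposure (0.5% DMSO). Cells were T47D, grown in insulin-supplemented (0.2 units/mL) DMEM with 10% FBS and treated one day post-seeding.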

[3] = test system: VCaP cells; assay: Cellular growth inhibition assay for VCaP cells (CellTiter-Glo, 72 hours); type: cell-based, human
Outline: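 Luminescent viability signal after 72 h of compound exposure gave GI50 values by four-parameter nonlinear regression. Compounds were added in 0.5% DMSO to cells plated 24 h earlier at 5000/well in DMEM containing 10% FBS.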

[4] = test system: T-Rex 293 cell line SC3 cells lacking increased expression of androgen receptor protein; assay: Cellular growth inhibition assay, T-Rex 293 SC3 cells without doxycycline (CellTiter-Glo, 72 hours); type: cell-based; conditions: T-Rex 293 cell line SC3 cells not exposed to doxycycline (lacking increased androgen receptor expression)
Outline: as §1

Row | Structure (SMILES) | GI50 ([1]; 72 h) [µM] | GI50 ([2]; Homo sapiens, T47D, 72 h) [µM] | GI50 ([3]; Homo sapiens, VCaP, 72 h) [µM] | GI50 ([4]; 72 h) [µM] | GI50 [1] [µM] | GI50 [2] [µM] | GI50 [3] [µM] | GI50 [4] [µM]
1 | Cc1sc2c(c1C)C(c1ccc(C[C@H]3CC[C@@]4(CCCN(c5ccc(C(=O)N[C@H]6CC[C@H](Oc7ccc(C#N)c(Cl)c7)CC6)nn5)C4)C3)cc1)=N[C@@H](Cc1ncco1)c1nnc(C)n1-2 [I-123] | 1.5 to 3 | 1.5 to 3 | 1.5 to 3 | > 3 | – | – | – | –
2 | Cc1sc2c(c1C)C(c1ccc(C[C@H]3CC[C@]4(CCCN(c5ccc(C(=O)N[C@H]6CC[C@H](Oc7ccc(C#N)c(Cl)c7)CC6)nn5)C4)C3)cc1)=N[C@@H](Cc1ncco1)c1nnc(C)n1-2 [I-124] | < 0.5 | < 0.5 | < 0.5 | < 0.5 | – | – | – | –
3 | Cc1sc2c(c1C)C(c1ccc(C[C@@H]3CC[C@@]4(CCCN(c5ccc(C(=O)N[C@H]6CC[C@H](Oc7ccc(C#N)c(Cl)c7)CC6)nn5)C4)C3)cc1)=N[C@@H](Cc1ncco1)c1nnc(C)n1-2 [I-125] | < 0.5 | < 0.5 | < 0.5 | < 0.5 | – | – | – | –
4 | Cc1sc2c(c1C)C(c1ccc(CCCN3CCCN(c4ccc(C(=O)N[C@H]5CC[C@H](Oc6ccc(C#N)c(Cl)c6)CC5)nn4)CC3)cc1)=N[C@@H](Cc1ncco1)c1nnc(C)n1-2 [I-126] | < 0.5 | < 0.5 | < 0.5 | < 0.5 | – | – | – | –
5 | Cc1sc2c(c1C)C(c1ccc(C[C@H]3C[C@H]([C@H]4CCCN(c5ccc(C(=O)N[C@H]6CC[C@H](Oc7ccc(C#N)c(Cl)c7)CC6)nn5)C4)C3)cc1)=N[C@@H](Cc1ncco1)c1nnc(C)n1-2 [I-131] | < 0.5 | 0.5 to 1.5 | < 0.5 | < 0.5 | – | – | – | –
6 | Cc1sc2c(c1C)C(c1ccc(N3CC4(CCN(c5ccc(C(=O)NC6CCC(Oc7ccc(C#N)c(Cl)c7)CC6)nn5)CC4)C3)cc1)=N[C@@H](Cc1ncco1)c1nnc(C)n1-2 (stereo partly drawn) [I-132, N-[4-(3-chloro-4-cyano-phenoxy)cyclohexyl]-6-[2-[4-[(9S)-4,5,13-trimethyl-9-(oxazol-2-ylmethyl)-3-thia-1,8,11,12-tetrazatricyclo[8.3.0.02,6]trideca-2(6),4,7,10,12-pentaen-7-yl]phenyl]-2,7-diazaspiro[3.5]nonan-7-yl]pyridazine-3-carboxamide] | < 0.5 | < 0.5 | < 0.5 | < 0.5 | – | – | – | –
7 | Cc1sc2c(c1C)C(c1ccc(OC3CC4(CCN(c5ccc(C(=O)N[C@H]6CC[C@H](Oc7ccc(C#N)c(Cl)c7)CC6)nn5)CC4)C3)cc1)=N/C(=C/c1ncco1)c1nnc(C)n1-2 [I-135, N-[4-(3-chloro-4-cyano-phenoxy)cyclohexyl]-6-[2-[4-[(9E)-4,5,13-trimethyl-9-(oxazol-2-ylmethylene)-3-thia-1,8,11,12-tetrazatricyclo[8.3.0.02,6]trideca-2(6),4,7,10,12-pentaen-7-yl]phenoxy]-7-azaspiro[3.5]nonan-7-yl]pyridazine-3-carboxamide] | < 0.5 | > 3 | < 0.5 | > 3 | – | – | – | –
8 | Cc1sc2c(c1C)C(c1ccc(C#CCC3CCN(c4ccc(C(=O)N[C@H]5CC[C@H](Oc6ccc(C#N)c(Cl)c6)CC5)nn4)CC3)cc1)=N[C@@H](Cc1ncco1)c1nnc(C)n1-2 [I-136, N-[4-(3-chloro-4-cyano-phenoxy)cyclohexyl]-6-[4-[3-[4-[(9S)-4,5,13-trimethyl-9-(oxazol-2-ylmethyl)-3-thia-1,8,11,12-tetrazatricyclo[8.3.0.02,6]trideca-2(6),4,7,10,12-pentaen-7-yl]phenyl]prop-2-ynyl]-1-piperidyl]pyridazine-3-carboxamide] | < 0.5 | < 0.5 | < 0.5 | < 0.5 | – | – | – | –
9 | Cc1sc2c(c1C)C(c1ccc(C#CCC3CCN(c4ccc(C(=O)N[C@H]5CC[C@H](Oc6ccc(C#N)c(Cl)c6)CC5)nn4)CC3)cc1)=N[C@H](Cc1ncco1)c1nnc(C)n1-2 [I-137] | < 0.5 | 1.5 to 3 | 0.5 to 1.5 | > 3 | – | – | – | –
10 | Cc1sc2c(c1C)C(c1ccc(C#CC3CC4(C3)CN(c3ccc(C(=O)N[C@H]5CC[C@H](Oc6ccc(C#N)c(Cl)c6)CC5)nn3)C4)cc1)=N[C@@H](Cc1ncco1)c1nnc(C)n1-2 [I-138] | < 0.5 | < 0.5 | < 0.5 | < 0.5 | – | – | – | –
11 | Cc1sc2c(c1C)C(c1ccc(C#CC3CC4(CCN(c5ccc(C(=O)N[C@H]6CC[C@H](Oc7ccc(C#N)c(Cl)c7)CC6)nn5)CC4)C3)cc1)=N[C@@H](Cc1ncco1)c1nnc(C)n1-2 [I-139] | < 0.5 | < 0.5 | < 0.5 | < 0.5 | – | – | – | –
12 | Cc1sc2c(c1C)C(c1ccc(C#CCN3[C@H](C)CN(c4ccc(C(=O)N[C@H]5CC[C@H](Oc6ccc(C#N)c(Cl)c6)CC5)nn4)C[C@@H]3C)cc1)=N[C@@H](Cc1ncco1)c1nnc(C)n1-2 [I-140] | < 0.5 | < 0.5 | < 0.5 | < 0.5 | – | – | – | –
13 | Cc1sc2c(c1C)C(c1ccc(C=C3CC4(CCCN(c5ccc(C(=O)NC6CCC(Oc7ccc(C#N)c(Cl)c7)CC6)nn5)C4)C3)cc1)=N[C@@H](Cc1ncco1)c1nnc(C)n1-2 (stereo partly drawn) [I-142, N-[4-(3-chloro-4-cyano-phenoxy)cyclohexyl]-6-[2-[[4-[(9S)-4,5,13-trimethyl-9-(oxazol-2-ylmethyl)-3-thia-1,8,11,12-tetrazatricyclo[8.3.0.02,6]trideca-2(6),4,7,10,12-pentaen-7-yl]phenyl]methylene]-6-azaspiro[3.5]nonan-6-yl]pyridazine-3-carboxamide] | < 0.5 | < 0.5 | < 0.5 | < 0.5 | – | – | – | –
14 | Cc1sc2c(c1C)C(c1ccc(C3CC3C3CC4(CCN(c5ccc(C(=O)N[C@H]6CC[C@H](Oc7ccc(C#N)c(Cl)c7)CC6)nn5)CC4)C3)cc1)=N[C@@H](Cc1ncco1)c1nnc(C)n1-2 (stereo partly drawn) [I-200] | < 0.5 | < 0.5 | < 0.5 | < 0.5 | – | – | – | –
15 | Cc1sc2c(c1C)C(c1ccc([C@@H]3C[C@H]3C3CC4(CCN(c5ccc(C(=O)N[C@H]6CC[C@H](Oc7ccc(C#N)c(Cl)c7)CC6)nn5)CC4)C3)cc1)=N[C@@H](Cc1ncco1)c1nnc(C)n1-2 [I-201] | < 0.5 | < 0.5 | < 0.5 | > 3 | – | – | – | –
16 | Cc1sc2c(c1C)C(c1ccc([C@H]3C[C@@H]3CC3CCCN(c4ccc(C(=O)N[C@H]5CC[C@H](Oc6ccc(C#N)c(Cl)c6)CC5)nn4)C3)cc1)=N[C@@H](Cc1ncco1)c1nnc(C)n1-2 (stereo partly drawn) [I-202] | < 0.5 | < 0.5 | < 0.5 | < 0.5 | – | – | – | –
17 | Cc1sc2c(c1C)C(c1ccc(OC[C@H]3C[C@]4(CCCN(c5ccc(C(=O)N[C@H]6CC[C@H](Oc7ccc(C#N)c(Cl)c7)CC6)nn5)C4)C3)cc1)=N[C@@H](Cc1ncco1)c1nnc(C)n1-2 [I-206] | – | – | – | – | 0.5 to 1.5 | > 3 | > 3 | > 3
18 | Cc1sc2c(c1C)C(c1ccc(CC[C@H]3C[C@@]4(CCCN(c5ccc(C(=O)N[C@H]6CC[C@H](Oc7ccc(C#N)c(Cl)c7)CC6)nn5)C4)C3)nc1)=N[C@@H](Cc1ncco1)c1nnc(C)n1-2 [I-207] | < 0.5 | < 0.5 | < 0.5 | < 0.5 | – | – | – | –
19 | Cc1sc2c(c1C)C(c1ccc(C3CN(C4CCN(c5ccc(C(=O)N[C@H]6CC[C@H](Oc7ccc(C#N)c(Cl)c7)CC6)nn5)C4)C3)cc1)=N[C@@H](Cc1ncco1)c1nnc(C)n1-2 (stereo partly drawn) [I-209] | < 0.5 | < 0.5 | < 0.5 | < 0.5 | – | – | – | –
20 | Cc1sc2c(c1C)C(c1ccc(C[C@H]3C[C@@]4(CN(c5ccc(C(=O)N[C@H]6CC[C@H](Oc7ccc(C#N)c(Cl)c7)CC6)nn5)CCO4)C3)cc1)=N[C@@H](Cc1ncco1)c1nnc(C)n1-2 [I-210] | > 3 | 0.5 to 1.5 | > 3 | > 3 | – | – | – | –
21 | Cc1sc2c(c1C)C(c1ccc(C[C@H]3C[C@]4(CN(c5ccc(C(=O)N[C@H]6CC[C@H](Oc7ccc(C#N)c(Cl)c7)CC6)nn5)CCO4)C3)cc1)=N[C@@H](Cc1ncco1)c1nnc(C)n1-2 [I-211] | < 0.5 | < 0.5 | < 0.5 | < 0.5 | – | – | – | –
